The source of these data is ChEMBL document CHEMBL5370650, “Discovery of Clinical Candidate NT-0796, a Brain-Penetrant and Highly Potent NLRP3 Inflammasome Inhibitor for Neuroinflammatory Disorders” (J Med Chem, 2023).

Series [1] in a line: Permeability of compound at pH 7.4 incubated for 4 hrs by […] based PAMPA assay. To be noted: read-out: permeability. Format: ADME. In general terms: The PAMPA barrier holds no transporters, so it reflects passive diffusion.
Series [2] is described as follows: Kinetic solubility of compound in PBS at pH7.4 at 1 to 200 uM incubated for 24 hrs by LC-UV analysis. The settings on record: pH 7.4, dose 1-200 µM, read-out: Kinetic_solubility. Format: physicochemical.
In the next series the target is T1, Cytochrome P450 1A2 (Homo sapiens, UniProt P05177).
T1 sequence (P05177 whole entry): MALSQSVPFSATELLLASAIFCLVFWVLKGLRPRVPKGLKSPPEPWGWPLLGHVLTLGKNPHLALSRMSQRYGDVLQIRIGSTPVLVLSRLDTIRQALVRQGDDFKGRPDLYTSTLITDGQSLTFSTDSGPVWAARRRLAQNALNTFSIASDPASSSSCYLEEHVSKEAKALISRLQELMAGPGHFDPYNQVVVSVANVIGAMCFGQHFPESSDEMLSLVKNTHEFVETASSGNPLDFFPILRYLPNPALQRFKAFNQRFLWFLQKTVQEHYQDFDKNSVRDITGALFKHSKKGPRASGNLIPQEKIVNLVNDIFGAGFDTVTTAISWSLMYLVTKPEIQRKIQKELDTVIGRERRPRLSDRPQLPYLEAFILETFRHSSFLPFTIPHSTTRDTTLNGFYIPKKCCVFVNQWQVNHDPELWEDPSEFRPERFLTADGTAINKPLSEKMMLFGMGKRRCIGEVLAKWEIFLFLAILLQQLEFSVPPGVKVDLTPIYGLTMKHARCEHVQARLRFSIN
Kind of series: Reversible inhibition of CYP1A2 in human liver microsomes in presence of NADPH by LC-MS/MS analysis. In kind it is ADME, Microsome. A general note: Microsomes from liver hold many membrane-bound enzymes, among them those of drug oxidation.

Series [3] concerns the target T2, NACHT, LRR and PYD domains-containing protein 3 (Homo sapiens, UniProt Q96P20). Kind of series: Inhibition of NLRP3 inflammasome activation in LPS-activated human PBMC cells assessed as inhibition of ATP/nigericin induced IL-1beta secretion preincubated with LPS for 3 hrs followed by compound addition for 30 mins and further stimulated with ATP for 1 hr by ELISA. Format: cell-based. A general note: An ELISA detects its analyte on a solid surface through an enzyme-linked reagent.

In series [4] the target is T2, NACHT, LRR and PYD domains-containing protein 3. Kind of series: Inhibition of NLRP3 inflammasome activation in human whole blood assessed as inhibition of LPS/ATP induced IL-1beta secretion preincubated with LPS for 3 hrs followed by compound addition for 30 mins and further stimulated with ATP for 60 mins by ELISA. In kind it is tissue-based.
In the next series the target is Cytochrome P450 2C19 (Homo sapiens, UniProt P33261). Kind of series: Reversible inhibition of CYP2C19 in human liver microsomes using S-mephenytoin as substrate incubated for 20 mins in presence of NADPH by LC-MS/MS analysis. Format: ADME, Microsome.
Chain of Cytochrome P450 2C19 (P33261 whole entry): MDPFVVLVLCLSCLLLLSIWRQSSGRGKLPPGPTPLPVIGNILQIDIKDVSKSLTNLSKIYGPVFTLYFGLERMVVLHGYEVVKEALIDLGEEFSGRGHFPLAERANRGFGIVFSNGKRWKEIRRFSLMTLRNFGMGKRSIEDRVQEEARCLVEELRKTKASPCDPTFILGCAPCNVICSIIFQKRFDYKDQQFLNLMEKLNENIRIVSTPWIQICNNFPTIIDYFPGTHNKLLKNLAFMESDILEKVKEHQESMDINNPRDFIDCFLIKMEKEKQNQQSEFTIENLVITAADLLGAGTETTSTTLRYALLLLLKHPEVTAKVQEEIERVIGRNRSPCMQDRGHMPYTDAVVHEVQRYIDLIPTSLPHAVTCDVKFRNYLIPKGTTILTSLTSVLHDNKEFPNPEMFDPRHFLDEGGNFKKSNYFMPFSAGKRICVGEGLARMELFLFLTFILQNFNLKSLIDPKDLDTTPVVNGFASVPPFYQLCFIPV
A further series has as its target Cytochrome P450 2C9 (Homo sapiens, UniProt P11712). Kind of series: Reversible inhibition of CYP2C9 in human liver microsomes in presence of NADPH by LC-MS/MS analysis. Format: ADME, Microsome.
In another series the target is Cytochrome P450 2D6 (Homo sapiens, UniProt P10635). Kind of series: Reversible inhibition of CYP2D6 in human liver microsomes in presence of NADPH by LC-MS/MS analysis. Format: ADME, Microsome.
Chain of Cytochrome P450 2D6 (P10635 whole entry): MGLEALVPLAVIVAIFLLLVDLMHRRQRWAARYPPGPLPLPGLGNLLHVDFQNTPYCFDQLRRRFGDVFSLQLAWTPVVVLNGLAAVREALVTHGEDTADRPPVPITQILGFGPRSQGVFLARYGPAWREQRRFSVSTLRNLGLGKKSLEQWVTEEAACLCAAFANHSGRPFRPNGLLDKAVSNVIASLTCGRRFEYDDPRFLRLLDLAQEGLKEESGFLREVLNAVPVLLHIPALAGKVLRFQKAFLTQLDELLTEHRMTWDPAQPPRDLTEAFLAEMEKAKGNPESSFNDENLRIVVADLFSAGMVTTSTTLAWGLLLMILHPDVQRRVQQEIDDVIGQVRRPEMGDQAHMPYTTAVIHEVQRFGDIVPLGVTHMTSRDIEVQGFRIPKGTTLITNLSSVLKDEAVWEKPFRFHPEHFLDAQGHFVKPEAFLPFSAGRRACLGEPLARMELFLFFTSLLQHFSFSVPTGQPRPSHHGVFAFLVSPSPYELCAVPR
The next series concerns the target Cytochrome P450 3A4 (Homo sapiens, UniProt P08684). Kind of series: Reversible inhibition of CYP3A4 in human liver microsomes using nifedipine as substrate incubated for 5 mins in presence of NADPH by LC-MS/MS analysis. In kind it is ADME, Microsome.
Series [5] can be described thus: Drug concentration in C57BL/6J mouse blood at 3 mg/kg, iv measured after 5 mins by LC-MS/MS analysis. Format: ADME, organism-based. To be noted: read-out: Ct.
The nature of series [6]: Drug concentration in C57BL/6J mouse brain at 3 mg/kg, iv measured after 5 mins by LC-MS/MS analysis. Format: ADME, organism-based. To be noted: read-out: Ct.
Series [7] can be described thus: Ratio of drug concentration in C57BL/6J mouse brain to blood at 3 mg/kg, iv measured after 5 mins by LC-MS/MS analysis. Format: ADME, organism-based. To be noted: read-out: BBR.

≈ marks a conversion by molar mass, not a printed value.

T2 sequence (Q96P20 whole entry, the tested form may be a part): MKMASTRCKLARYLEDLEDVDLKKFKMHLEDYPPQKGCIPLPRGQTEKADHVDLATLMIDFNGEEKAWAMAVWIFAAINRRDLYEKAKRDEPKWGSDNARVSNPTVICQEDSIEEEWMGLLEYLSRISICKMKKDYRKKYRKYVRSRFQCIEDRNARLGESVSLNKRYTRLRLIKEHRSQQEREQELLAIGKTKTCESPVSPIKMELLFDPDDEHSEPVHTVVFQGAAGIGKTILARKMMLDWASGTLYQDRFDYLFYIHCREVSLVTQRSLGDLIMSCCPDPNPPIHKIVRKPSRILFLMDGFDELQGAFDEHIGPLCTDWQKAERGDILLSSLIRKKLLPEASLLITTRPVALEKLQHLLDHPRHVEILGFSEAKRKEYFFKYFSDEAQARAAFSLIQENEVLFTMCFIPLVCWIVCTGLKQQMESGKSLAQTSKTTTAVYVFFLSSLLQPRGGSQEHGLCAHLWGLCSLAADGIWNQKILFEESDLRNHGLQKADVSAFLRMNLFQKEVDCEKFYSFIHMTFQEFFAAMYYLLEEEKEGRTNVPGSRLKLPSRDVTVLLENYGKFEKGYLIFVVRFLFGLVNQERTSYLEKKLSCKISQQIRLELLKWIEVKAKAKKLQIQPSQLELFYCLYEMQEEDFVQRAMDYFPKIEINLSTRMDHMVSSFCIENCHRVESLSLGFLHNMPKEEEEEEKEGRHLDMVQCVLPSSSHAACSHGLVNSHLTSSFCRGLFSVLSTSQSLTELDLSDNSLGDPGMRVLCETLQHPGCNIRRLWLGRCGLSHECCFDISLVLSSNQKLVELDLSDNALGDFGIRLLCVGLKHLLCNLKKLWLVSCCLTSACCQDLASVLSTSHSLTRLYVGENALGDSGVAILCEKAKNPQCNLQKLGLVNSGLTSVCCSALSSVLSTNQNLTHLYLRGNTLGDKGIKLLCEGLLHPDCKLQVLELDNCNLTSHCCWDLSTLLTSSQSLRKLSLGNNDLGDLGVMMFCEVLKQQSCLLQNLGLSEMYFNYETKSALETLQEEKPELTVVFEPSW
Chain of Cytochrome P450 3A4 (P08684 whole entry): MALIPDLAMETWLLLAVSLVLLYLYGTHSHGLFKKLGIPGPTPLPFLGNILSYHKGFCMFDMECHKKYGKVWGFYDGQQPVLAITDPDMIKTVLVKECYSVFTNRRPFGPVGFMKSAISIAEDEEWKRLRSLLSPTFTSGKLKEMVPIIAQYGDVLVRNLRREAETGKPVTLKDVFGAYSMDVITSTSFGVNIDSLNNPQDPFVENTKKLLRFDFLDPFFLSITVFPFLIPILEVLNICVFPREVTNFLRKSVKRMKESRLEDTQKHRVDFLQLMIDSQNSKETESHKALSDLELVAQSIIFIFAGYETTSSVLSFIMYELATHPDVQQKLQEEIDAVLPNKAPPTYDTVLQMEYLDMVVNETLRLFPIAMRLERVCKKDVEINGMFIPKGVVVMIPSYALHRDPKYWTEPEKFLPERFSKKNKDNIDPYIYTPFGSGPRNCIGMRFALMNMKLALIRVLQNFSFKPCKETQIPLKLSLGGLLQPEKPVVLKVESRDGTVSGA
Chain of Cytochrome P450 2C9 (P11712 whole entry): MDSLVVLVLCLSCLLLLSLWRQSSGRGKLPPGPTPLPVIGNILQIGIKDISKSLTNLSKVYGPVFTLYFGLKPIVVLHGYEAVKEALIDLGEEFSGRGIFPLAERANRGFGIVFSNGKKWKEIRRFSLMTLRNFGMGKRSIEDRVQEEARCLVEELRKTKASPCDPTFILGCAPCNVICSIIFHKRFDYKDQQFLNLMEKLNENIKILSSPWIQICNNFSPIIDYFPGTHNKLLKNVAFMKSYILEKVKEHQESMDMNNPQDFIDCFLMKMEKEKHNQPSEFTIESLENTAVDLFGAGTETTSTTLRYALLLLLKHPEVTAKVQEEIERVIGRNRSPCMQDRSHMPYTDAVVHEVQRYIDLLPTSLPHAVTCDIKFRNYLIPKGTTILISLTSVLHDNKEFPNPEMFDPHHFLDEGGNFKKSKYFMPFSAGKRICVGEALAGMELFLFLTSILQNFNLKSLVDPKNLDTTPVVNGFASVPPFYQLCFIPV

On to `CC(C)OC(=O)[C@@H](Cn1cncn1)OC(=O)Nc1c2c(cc3c1CCC3)CCC2`, for which the Papp at 4 h in [1] was determined as 13.7 ×10⁻⁶ cm/s. Besides, in [2], the solubility kinetic at 24 h came to 37 µM (≈ 14.7 µg/mL). For the same molecule, the IC50 on Cytochrome P450 1A2 came out at 0.18 µM.
Regarding `O=C(Nc1c2c(cc3c1CCC3)CCC2)O[C@H](Cc1ncccn1)C(=O)O`, the IC50 in series [3] is 0.066 µM; in series [4] it was 4.7 µM; at Cytochrome P450 2C19, over 30 µM; on Cytochrome P450 1A2, over 30 µM; at Cytochrome P450 2C9, over 30 µM; at Cytochrome P450 2D6, over 30 µM. Also, the IC50 on Cytochrome P450 3A4 was over 30 µM. Moreover, the Papp at 4 h in series [1] was under 0.0002 ×10⁻⁶ cm/s. For the same molecule, the solubility kinetic at 24 h in series [2] is over 200 µM. In addition, the concentration at 5 min in series [5] stood at 1160 ng/mL; in series [6], 91.7 ng/g. Further, the Kp at 5 min in [7] was found to be 0.07.
For `CCOC(=O)COC(=O)Nc1cc(C)ccc1C`, the IC50 in [3] turned out to be 0.97 µM; in series [4], 2.9 µM.
For `CCOC(=O)COC(=O)Nc1ccccc1C(F)(F)F`, in that order: over 20 µM and over 20 µM.
Take `CC(C)OC(=O)[C@@H](Cn1cc(C#N)cn1)OC(=O)Nc1c2c(cc3c1CCC3)CCC2`: the Papp at 4 h in [1] was determined as 5 ×10⁻⁶ cm/s. Also, the solubility kinetic at 24 h in series [2] was under 1 µM. Also, at Cytochrome P450 2C19, the IC50 was 4.4 µM.
As to `CCOC(=O)COC(=O)Nc1ccccc1C#N`, the IC50 in series [3] worked out at 5.5 µM; in series [4], 6.8 µM.
For `COC(=O)CN(C)C(=O)Nc1c2c(cc3c1CCC3)CCC2`, the IC50 in series [3] and in series [4] was over 40 µM in each case.
Turning to `CCOC(=O)COC(=O)Nc1c(C)cccc1C`, the IC50 in series [3] came out at 0.93 µM; in series [4], 1.1 µM.
`O=C(Nc1c2c(cc3c1CCC3)CCC2)O[C@H](Cc1ncccn1)C(=O)OC1CCCC1`: in [1], the Papp at 4 h turned out to be 3.5 ×10⁻⁶ cm/s. Further, the solubility kinetic at 24 h in series [2] is under 1 µM.
Turning to `CCOC(=O)CNC(=O)Oc1c2c(cc3c1CCC3)CCC2`, the IC50 in series [3] and in series [4] was over 40 µM each time.
With `CCOC(=O)COC(=O)Nc1c(C)cc(C)cc1C`, the IC50 in series [3] came to 0.59 µM; in [4] it was 3.9 µM.
As to `CCOC(=O)COC(=O)Nc1c(CC)cccc1CC`, the IC50 in [3] came out at 0.81 µM; in series [4], 13 µM.

For orientation: IC50 means the concentration that gives 50% inhibition.
